From ChEMBL document CHEMBL1201862, “PubChem BioAssay data set” (2004)
Activity calls are given as the source filed them.

Columns and labels:
[1] = target: T1, Voltage-gated N-type calcium channel alpha-1B subunit/Amyloid beta A4 precursor protein-binding family A member 1 (Homo sapiens, UniProt Q00975+Q02410); format: protein assay
[2] = target: T1, Voltage-gated N-type calcium channel alpha-1B subunit/Amyloid beta A4 precursor protein-binding family A member 1; format: protein assay; remark: listed apart in the source
[3] = HIV-1 AD8 envelope cell-cell fusion blockers – cherry-pick, dose response (AID 652062); format: functional, cell-based;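 note: luciferase signal from cell-cell fusion driven by HIV-1 clade B AD8 Env; potency is for inhibitors of fusion seen as a drop in luminescence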
[4] = target: Peroxisome proliferator-activated receptor gamma/Nuclear receptor coactivator 2 (Homo sapiens, UniProt P37231); format: functional;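 note: agonist potency for raising coactivator recruitment to the receptor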
[5] = target: Peroxisome proliferator-activated receptor gamma/Nuclear receptor coactivator 1 (Homo sapiens, UniProt P37231); format: functional;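 note: agonist potency as compounds enhance coactivator SRC-1 recruitment to PPARgamma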
Chain of Peroxisome proliferator-activated receptor gamma/Nuclear receptor coactivator 1 (P37231 whole entry): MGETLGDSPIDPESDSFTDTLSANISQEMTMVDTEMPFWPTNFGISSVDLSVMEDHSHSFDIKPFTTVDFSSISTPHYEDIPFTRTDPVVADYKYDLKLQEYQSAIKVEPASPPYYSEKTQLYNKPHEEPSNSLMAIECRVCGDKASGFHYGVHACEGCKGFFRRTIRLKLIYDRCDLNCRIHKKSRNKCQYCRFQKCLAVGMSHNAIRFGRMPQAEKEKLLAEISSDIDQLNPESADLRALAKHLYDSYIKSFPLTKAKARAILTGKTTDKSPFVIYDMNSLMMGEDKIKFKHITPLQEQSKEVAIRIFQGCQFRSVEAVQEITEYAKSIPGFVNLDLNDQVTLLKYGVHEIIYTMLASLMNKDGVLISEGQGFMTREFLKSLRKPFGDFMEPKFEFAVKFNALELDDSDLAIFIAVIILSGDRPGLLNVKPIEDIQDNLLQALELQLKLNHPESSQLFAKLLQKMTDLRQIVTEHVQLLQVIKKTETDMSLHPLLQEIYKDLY
Chain of Peroxisome proliferator-activated receptor gamma/Nuclear receptor coactivator 1 (Q15788 whole entry, further chain): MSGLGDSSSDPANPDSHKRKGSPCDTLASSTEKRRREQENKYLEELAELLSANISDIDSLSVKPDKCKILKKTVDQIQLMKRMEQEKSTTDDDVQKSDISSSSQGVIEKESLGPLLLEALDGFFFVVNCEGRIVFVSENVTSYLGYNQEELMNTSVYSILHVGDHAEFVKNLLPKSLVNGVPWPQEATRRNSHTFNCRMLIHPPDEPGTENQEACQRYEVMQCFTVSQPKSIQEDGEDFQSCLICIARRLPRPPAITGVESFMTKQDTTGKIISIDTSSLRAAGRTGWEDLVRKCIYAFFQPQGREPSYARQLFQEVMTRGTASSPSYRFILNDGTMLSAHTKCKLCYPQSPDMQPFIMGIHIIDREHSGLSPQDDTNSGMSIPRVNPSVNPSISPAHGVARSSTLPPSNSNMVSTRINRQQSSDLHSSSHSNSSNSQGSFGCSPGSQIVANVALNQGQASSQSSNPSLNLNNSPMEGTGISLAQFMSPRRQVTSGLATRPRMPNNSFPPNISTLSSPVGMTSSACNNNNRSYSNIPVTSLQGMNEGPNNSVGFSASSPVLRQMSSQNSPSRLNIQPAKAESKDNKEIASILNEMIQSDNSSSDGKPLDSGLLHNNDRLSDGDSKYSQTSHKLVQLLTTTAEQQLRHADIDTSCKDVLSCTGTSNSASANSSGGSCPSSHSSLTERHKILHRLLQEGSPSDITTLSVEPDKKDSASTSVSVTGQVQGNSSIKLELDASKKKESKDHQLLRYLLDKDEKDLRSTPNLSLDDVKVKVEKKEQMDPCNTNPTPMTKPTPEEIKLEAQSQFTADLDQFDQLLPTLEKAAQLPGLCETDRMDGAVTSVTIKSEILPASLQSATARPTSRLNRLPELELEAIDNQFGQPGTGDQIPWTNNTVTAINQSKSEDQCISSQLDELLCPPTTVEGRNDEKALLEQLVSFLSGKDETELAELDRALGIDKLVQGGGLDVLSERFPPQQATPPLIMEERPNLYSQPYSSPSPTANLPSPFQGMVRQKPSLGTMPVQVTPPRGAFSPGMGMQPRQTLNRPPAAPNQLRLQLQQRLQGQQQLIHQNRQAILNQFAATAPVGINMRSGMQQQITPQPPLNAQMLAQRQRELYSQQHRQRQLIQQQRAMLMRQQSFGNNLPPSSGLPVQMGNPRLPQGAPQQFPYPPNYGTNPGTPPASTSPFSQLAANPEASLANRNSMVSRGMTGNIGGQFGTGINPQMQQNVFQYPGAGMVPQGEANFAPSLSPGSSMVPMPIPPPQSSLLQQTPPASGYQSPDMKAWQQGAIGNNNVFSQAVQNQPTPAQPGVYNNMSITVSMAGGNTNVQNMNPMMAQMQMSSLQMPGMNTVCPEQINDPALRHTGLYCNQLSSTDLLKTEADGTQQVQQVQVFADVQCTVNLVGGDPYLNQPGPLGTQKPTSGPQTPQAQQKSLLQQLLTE

[6] = target: Peroxisome proliferator-activated receptor gamma/Nuclear receptor coactivator 3 (Homo sapiens, UniProt P37231); format: functional;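 note: agonist potency for raising coactivator recruitment to the receptor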
Chain of Peroxisome proliferator-activated receptor gamma/Nuclear receptor coactivator 3 (P37231 whole entry): as the sequence (P37231 whole entry) above
Chain of Peroxisome proliferator-activated receptor gamma/Nuclear receptor coactivator 3 (Q9Y6Q9 whole entry, further chain): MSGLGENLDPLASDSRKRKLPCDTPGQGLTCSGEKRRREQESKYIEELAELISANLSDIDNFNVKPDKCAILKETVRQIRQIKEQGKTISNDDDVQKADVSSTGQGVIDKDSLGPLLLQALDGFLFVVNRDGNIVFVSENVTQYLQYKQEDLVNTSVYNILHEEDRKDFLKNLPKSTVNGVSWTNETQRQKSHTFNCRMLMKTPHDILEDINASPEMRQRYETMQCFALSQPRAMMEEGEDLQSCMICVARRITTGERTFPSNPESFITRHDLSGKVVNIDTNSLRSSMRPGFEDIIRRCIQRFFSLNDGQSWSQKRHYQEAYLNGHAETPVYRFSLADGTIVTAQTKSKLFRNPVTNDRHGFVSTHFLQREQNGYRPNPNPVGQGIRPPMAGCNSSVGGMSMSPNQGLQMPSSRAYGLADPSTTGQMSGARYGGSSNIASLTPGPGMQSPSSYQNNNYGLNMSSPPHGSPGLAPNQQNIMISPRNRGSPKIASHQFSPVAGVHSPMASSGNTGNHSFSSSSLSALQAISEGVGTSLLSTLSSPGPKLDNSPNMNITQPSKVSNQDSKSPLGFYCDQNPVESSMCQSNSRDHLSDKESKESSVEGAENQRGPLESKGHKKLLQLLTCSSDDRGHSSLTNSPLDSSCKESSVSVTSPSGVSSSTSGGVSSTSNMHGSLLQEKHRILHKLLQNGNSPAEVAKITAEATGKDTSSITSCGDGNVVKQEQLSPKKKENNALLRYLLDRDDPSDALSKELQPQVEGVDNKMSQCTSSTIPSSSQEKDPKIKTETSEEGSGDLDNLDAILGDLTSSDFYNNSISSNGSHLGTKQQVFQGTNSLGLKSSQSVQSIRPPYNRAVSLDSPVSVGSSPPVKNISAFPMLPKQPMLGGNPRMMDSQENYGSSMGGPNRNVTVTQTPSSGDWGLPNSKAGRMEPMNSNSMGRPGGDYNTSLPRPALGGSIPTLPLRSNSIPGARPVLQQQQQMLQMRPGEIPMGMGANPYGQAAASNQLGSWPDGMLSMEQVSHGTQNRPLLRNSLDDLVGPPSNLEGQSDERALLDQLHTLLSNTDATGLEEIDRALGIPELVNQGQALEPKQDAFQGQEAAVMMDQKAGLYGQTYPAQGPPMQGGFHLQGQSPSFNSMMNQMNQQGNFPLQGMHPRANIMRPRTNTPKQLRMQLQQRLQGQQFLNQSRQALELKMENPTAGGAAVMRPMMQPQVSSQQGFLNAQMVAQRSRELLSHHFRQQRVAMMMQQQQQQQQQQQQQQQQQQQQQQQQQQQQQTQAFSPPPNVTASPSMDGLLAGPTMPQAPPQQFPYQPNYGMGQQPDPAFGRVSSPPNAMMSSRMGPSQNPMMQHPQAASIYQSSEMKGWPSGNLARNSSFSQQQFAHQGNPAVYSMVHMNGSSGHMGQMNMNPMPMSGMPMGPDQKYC

[7] = target: T2, Small ubiquitin-related modifier 1 (Homo sapiens, UniProt P63165); experiment: SUMO1 protein interaction blockers, potency – biochemical, fluorescence polarization, uHTS hits, dose response (AID 624382); format: functional; conditions: read-out: IC50_Mean
T2 sequence (P63165 whole entry): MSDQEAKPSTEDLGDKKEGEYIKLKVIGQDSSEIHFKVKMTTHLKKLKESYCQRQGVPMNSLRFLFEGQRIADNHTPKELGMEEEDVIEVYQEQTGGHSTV

[8] = target: T2, Small ubiquitin-related modifier 1; experiment: SUMO1 protein-protein binding blockers, potency – biochemical, FRET, dose response (AID 624383); format: functional; conditions: read-out: IC50_Mean
[9] = target: T3, Short transient receptor potential channel 4 (Mus musculus, UniProt Q9QUQ5); experiment: calcium entry via TRPC4 opening agents – cell-based, HEK293 TRPC4/mu-opioid, Fluo-4 calcium, dose response (AID 434937); format: functional
T3 sequence (Q9QUQ5 whole entry): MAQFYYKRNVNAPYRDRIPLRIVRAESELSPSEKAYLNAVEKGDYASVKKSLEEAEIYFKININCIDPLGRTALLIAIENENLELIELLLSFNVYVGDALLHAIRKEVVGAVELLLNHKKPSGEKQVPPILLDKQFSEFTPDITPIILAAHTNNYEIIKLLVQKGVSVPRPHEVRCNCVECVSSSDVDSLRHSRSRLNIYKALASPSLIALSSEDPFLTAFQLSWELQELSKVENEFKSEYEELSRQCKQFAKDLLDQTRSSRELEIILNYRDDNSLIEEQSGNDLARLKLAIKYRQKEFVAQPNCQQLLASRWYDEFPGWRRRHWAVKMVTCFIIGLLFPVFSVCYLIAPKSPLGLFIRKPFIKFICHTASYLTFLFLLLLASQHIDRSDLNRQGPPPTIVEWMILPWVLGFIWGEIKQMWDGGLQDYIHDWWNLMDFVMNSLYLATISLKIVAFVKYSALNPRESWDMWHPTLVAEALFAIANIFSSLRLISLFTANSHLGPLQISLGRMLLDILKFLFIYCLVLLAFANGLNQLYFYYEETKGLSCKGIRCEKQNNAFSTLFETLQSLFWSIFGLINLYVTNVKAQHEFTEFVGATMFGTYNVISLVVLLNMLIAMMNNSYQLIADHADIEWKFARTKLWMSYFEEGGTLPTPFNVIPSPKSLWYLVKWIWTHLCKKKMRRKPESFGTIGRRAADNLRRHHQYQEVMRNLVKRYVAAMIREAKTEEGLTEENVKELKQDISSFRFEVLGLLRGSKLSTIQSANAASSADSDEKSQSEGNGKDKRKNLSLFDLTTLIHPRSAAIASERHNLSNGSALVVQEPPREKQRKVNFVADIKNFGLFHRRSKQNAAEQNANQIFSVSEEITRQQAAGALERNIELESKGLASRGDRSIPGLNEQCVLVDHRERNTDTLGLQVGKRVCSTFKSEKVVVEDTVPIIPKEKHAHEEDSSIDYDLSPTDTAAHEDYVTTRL

[10] = target: T4, Corticotropin-releasing factor receptor 2/Corticotropin-releasing factor-binding protein (Homo sapiens, UniProt P24387+Q13324); experiment: Dose Response confirmation of uHTS hits for small molecule antagonists of the CRF-binding protein and CRF-R2 receptor complex.; format: functional; conditions: read-out: IC50_Mean
T4 sequence (Q13324 whole entry): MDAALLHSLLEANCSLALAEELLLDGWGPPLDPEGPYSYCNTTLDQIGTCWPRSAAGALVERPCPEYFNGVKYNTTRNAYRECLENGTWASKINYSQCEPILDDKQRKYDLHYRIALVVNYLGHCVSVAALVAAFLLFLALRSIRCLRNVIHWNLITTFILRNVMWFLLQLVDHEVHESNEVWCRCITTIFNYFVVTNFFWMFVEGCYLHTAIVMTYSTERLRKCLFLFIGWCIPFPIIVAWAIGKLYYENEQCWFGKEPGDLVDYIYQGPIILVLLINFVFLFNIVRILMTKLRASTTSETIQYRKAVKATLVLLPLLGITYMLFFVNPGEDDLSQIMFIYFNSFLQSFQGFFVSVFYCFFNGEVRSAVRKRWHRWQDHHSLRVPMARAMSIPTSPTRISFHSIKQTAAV
T4 sequence (P24387 whole entry): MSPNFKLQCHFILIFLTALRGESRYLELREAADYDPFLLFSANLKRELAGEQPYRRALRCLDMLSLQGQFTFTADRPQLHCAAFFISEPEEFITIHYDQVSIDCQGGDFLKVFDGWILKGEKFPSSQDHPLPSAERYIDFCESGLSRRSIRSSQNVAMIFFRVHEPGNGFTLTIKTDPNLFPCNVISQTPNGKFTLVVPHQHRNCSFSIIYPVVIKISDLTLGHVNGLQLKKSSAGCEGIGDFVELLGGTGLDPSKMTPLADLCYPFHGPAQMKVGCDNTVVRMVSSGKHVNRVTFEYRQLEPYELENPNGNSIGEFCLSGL

[11] = target: T4, Corticotropin-releasing factor receptor 2/Corticotropin-releasing factor-binding protein; experiment: activators of CRF receptor 2 with binding protein – uHTS hits, confirmation (AID 602473); format: functional; conditions: read-out: EC50_Mean
Cytochrome P450 1A2 = target: T5, Cytochrome P450 1A2 (Homo sapiens, UniProt P05177);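 note: PubChem cytochrome P450 panel assay, CYP1A2 panel member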
T5 sequence (P05177 whole entry): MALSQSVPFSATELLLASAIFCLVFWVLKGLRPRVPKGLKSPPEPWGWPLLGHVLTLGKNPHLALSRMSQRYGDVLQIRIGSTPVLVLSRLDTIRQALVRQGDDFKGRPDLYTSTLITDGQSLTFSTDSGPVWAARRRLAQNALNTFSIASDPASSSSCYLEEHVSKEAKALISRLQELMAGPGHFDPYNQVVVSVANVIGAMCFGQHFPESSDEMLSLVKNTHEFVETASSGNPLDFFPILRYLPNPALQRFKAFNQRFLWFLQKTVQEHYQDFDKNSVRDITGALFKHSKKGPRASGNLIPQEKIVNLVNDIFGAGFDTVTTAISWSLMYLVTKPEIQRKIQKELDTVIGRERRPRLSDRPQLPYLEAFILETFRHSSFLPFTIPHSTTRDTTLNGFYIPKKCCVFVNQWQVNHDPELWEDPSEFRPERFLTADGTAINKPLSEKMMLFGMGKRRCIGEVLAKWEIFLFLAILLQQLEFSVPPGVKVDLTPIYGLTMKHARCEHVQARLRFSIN

Cytochrome P450 2C9 = Cytochrome P450 2C9 (Homo sapiens, UniProt P11712)
Chain of Cytochrome P450 2C9 (P11712 whole entry): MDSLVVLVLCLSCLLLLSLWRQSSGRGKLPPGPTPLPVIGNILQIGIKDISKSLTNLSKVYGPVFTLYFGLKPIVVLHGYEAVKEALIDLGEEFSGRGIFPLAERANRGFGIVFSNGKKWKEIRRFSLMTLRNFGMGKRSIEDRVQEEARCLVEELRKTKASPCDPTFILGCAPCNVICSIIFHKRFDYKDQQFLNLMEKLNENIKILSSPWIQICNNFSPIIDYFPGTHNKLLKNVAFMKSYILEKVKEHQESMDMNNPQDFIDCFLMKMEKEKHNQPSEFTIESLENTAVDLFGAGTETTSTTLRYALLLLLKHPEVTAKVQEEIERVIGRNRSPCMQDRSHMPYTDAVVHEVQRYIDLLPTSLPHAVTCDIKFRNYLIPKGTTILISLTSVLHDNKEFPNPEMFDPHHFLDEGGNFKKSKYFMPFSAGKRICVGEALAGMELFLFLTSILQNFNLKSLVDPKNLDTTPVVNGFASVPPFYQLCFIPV

[12] = target: Luciferin 4-monooxygenase (Photinus pyralis, UniProt P08659); experiment: Counter Screen for Luciferase-based Assay Positives. [Related pubchem assays: 620, 618, 411 ]
Chain of Luciferin 4-monooxygenase (P08659 whole entry): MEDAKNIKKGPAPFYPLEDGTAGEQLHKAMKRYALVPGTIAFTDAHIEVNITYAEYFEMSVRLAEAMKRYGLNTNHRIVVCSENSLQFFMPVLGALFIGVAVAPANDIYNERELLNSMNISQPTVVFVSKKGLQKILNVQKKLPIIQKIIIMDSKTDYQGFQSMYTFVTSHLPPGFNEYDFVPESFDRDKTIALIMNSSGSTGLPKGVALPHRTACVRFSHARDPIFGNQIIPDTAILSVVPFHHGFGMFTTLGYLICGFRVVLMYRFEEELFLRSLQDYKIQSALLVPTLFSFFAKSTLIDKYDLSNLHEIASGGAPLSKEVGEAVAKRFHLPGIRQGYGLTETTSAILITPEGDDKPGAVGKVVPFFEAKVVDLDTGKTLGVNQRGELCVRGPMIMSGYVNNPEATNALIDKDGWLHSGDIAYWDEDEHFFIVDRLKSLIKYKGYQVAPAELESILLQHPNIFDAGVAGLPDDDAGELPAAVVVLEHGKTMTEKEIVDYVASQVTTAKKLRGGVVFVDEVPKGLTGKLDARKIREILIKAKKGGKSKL

HT-1080 = experiment: HT1080 cell viability loss – fluorescence readout (AID 620); format: functional, cell-based; conditions: Homo sapiens
[13] = target: T6, DNA repair and recombination protein RAD54-like (Homo sapiens, UniProt Q92698); experiment: RAD54 Holliday junction migration blockers – biochemical, fluorescence, cherry-picked samples, dose series, confirmation (AID 651657); format: functional
T6 sequence (Q92698 whole entry): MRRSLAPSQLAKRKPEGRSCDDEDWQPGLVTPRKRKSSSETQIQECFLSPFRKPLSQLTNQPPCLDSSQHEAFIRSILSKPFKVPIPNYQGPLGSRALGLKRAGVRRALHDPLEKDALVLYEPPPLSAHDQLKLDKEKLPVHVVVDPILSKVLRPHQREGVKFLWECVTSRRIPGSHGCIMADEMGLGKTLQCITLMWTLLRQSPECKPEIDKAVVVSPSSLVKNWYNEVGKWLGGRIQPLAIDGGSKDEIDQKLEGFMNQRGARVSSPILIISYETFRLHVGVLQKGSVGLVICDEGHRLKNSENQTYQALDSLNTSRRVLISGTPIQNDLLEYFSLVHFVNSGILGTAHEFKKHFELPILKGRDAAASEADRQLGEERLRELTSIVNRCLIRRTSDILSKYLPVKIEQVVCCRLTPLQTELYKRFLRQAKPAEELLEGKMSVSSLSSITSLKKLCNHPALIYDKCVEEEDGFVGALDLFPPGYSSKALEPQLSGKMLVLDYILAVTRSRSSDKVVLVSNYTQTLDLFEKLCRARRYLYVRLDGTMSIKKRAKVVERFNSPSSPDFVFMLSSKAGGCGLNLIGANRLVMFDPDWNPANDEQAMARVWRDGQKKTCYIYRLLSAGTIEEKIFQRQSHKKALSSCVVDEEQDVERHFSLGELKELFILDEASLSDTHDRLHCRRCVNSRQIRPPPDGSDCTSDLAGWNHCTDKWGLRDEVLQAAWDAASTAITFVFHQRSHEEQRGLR

[14] = target: T7, DNA repair protein RAD52 homolog (Homo sapiens, UniProt P43351); format: functional, biochemical
T7 sequence (P43351 whole entry): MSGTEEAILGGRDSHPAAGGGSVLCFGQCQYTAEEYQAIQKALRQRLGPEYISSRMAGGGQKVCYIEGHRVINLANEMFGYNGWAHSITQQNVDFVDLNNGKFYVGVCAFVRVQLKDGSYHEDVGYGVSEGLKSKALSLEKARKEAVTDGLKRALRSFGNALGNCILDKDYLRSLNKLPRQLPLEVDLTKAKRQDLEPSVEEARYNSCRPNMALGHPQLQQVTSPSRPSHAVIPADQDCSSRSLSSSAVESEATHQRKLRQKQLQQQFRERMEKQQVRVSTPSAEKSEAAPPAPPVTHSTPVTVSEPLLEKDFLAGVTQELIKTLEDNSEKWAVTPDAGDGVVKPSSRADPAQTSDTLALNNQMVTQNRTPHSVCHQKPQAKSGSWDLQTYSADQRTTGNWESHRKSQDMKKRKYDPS

[15] = Trypanosoma cruzi growth suppression in host cells – NIH3T3 host cells, beta-gal luminescence, confirmation (AID 2044); format: functional, cell-based;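 note: intracellular parasites grown in NIH/3T3 mouse fibroblasts as host cells; luminescent beta-galactosidase reporter signal from transgenic T. cruzi replicating inside host cells; inhibitors lower the luminescence signal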
[16] = NIH3T3 cell viability loss – ATP luminescence, mouse fibroblasts, counter-screen, dose response (AID 2010); format: functional, cell-based;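 note: cells exposed to compound for about 90 hours before reading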
[17] = target: T3, Short transient receptor potential channel 4; experiment: block of DAMGO-driven TRPC4 calcium entry – cell-based, HEK293 TRPC4/mu-opioid, Fluo-4 calcium, dose response (AID 434942); format: functional;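 note: potency of inhibitors blocking the TRPC4 calcium response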
[18] = blockers of HIV-1 envelope-mediated cell-cell fusion – cherry-pick, dose response (AID 652057); format: functional, cell-based

C=CCOc1ccc(/C=C2\SC(=S)N(N3CCOCC3)C2=O)cc1
IC50 [1]: 4.43 µM (active)
IC50 [2]: > 50 µM (inactive)

COCC(=O)N1C[C@@H](C)[C@H](OC)CN(C)C(=O)c2ccc(NC(=O)c3ccc(OC)cc3)cc2OC[C@@H]1C
AC50 [3]: 5.52 µM (active)

COc1ccc(Nc2nc(S(=O)(=O)c3ccc(C)cc3)c(Cl)s2)cc1
EC50 [4]: > 79.4 µM (not active)
EC50 [5]: > 79.4 µM (not active)
EC50 [6]: > 79.4 µM (not active)

CN(C(=O)COC(=O)c1ccc(-c2ccc(O)cc2)cc1)C1CCS(=O)(=O)C1 (stereo not drawn)
IC50 [7]: > 66.6 µM (inactive)
IC50 [8]: 16.1 µM (active)

CC1CC(C)CN(CCCNC(=O)Cn2cccc2C(=O)c2ccccc2)C1 (stereo not drawn)
EC50 [9]: 1.19 µM (active)

O=C1CSC(c2ccccc2F)N1c1cc(Cl)ccc1O (stereo not drawn)
IC50 [10]: > 47.1 µM (inactive)
EC50 [11]: > 53 µM (inactive)
AC50 (Cytochrome P450 1A2): 39.8 µM (inconclusive)
AC50 (Cytochrome P450 2C9): inconclusive

c1ccc(-n2ncc3c2ncn2nc(-c4ccco4)nc32)cc1
EC50 [4]: 16.2 µM (not active)
EC50 [5]: > 79.4 µM (not active)
EC50 [6]: > 79.4 µM (not active)

Cc1ccccc1Cn1nnc(-c2cccc(C(=O)O)c2)n1
EC50 [12]: > 100 µM (not active)
EC50 (HT-1080): > 50 µM (not active)

COc1ccc(-c2cc(NC=O)c3ncc(-c4cccc(C(=O)NCCN(C)C)c4)n3c2)cn1
AC50 [13]: 16.6 µM (active)
AC50 [14]: 5.69 µM (active)

CCN1CCN(Cc2ccc(NC(=O)c3cc(NC(=O)c4cnnc5ccccc45)cc(OC)c3)cc2C(F)(F)F)CC1
AC50 [14]: 24.3 µM (active)

COc1cc(CNCCCN2CCOCC2)cc(Br)c1OCc1ccc(Cl)cc1
EC50 [15]: 0.531 µM (active)
EC50 [16]: 24 µM (active)
EC50 [17]: 5.96 µM (active)

CC1CCc2nc(NC(=O)CN3CCN(Cc4ccc5c(c4)OCO5)CC3)sc2C1 (stereo not drawn)
EC50 [17]: 0.299 µM (active)

O=C(Nc1ccc(N2CCCCC2)cc1)c1ccccc1
EC50 [4]: > 79.4 µM (not active)
EC50 [5]: > 79.4 µM (not active)
EC50 [6]: > 79.4 µM (not active)
EC50 [12]: 1.28 µM (active)
EC50 (HT-1080): > 50 µM (not active)

O=C(NCc1ccc2c(c1)OCO2)Nc1ccc2nsnc2c1
EC50 [4]: 17.8 µM (not active)
EC50 [5]: 20.4 µM (not active)
EC50 [6]: 29.8 µM (not active)

CCN1CCN(CCCNC(=O)c2cc3c(=O)oc4ccc(C)cc4c3s2)CC1
AC50 [13]: 36.3 µM (active)

COc1ccc(S(=O)(=O)N(C)C[C@@H]2Oc3ccc(NC(=O)C4CCCCC4)cc3CC(=O)N([C@@H](C)CO)C[C@@H]2C)cc1
AC50 [18]: 27.6 µM (active)

NCCCC[C@H]1CN=C(S)N1CCc1cc(C(F)(F)F)cc(C(F)(F)F)c1
AC50 [14]: 17.4 µM (active)

COc1ccc2sc3c(O)nc4ccccc4c3c2c1
EC50 [4]: 12.1 µM (not active)
EC50 [5]: 11 µM (not active)
EC50 [6]: 11.2 µM (not active)

CCn1c(N2CCN(C(=O)Nc3ccc(F)cc3)CC2)nc2ccccc21
EC50 [9]: 0.944 µM (active)
AC50 (Cytochrome P450 1A2): 20 µM (inconclusive)
AC50 (Cytochrome P450 2C9): inconclusive

Cc1cc(Cl)c2oc(C(=O)N(C)Cc3nccn3C)c(C)c2c1
EC50 [17]: 0.531 µM (active)
